Results published in the NIST ThermoML archive (doi:10.1016/j.jct.2007.02.009).
Several values for one entry are separate records, joined by “and”; a condition that tells them apart may be missing. Equal values may be shown once.

Test: molar heat capacity at constant pressure
Conditions: 101.33 kPa

CN(C)C=O [dimethylformamide]
Crystal
Conditions	molar heat capacity at constant pressure [J/K/mol]
5 K	0.221
7.54 K	0.753
7.59 K	0.763
8.21 K	0.931
8.29 K	0.964
8.88 K	1.19
9.41 K	1.46
9.52 K	1.55
9.91 K	1.74
10 K	1.79
10.37 K	1.995
10.81 K	2.263
11.24 K	2.533
11.66 K	2.776
12.07 K	2.996
12.44 K	3.216
12.83 K	3.574
13.05 K	3.741
13.48 K	4.017
14.16 K	4.518
14.83 K	5.048
15 K	5.187
15.49 K	5.622
16.15 K	6.115
16.81 K	6.702
17.45 K	7.307
18.1 K	7.9
18.75 K	8.506
19.2 K	8.88
19.64 K	9.354
20 K	9.678
20.28 K	9.986
21.81 K	11.31
24.35 K	13.98
25 K	14.64
26.01 K	15.67
28.18 K	17.9
29.89 K	19.58
30 K	19.63
32.35 K	21.81
34.82 K	24.08
37.3 K	26.24
39.15 K	27.83
40 K	28.52
40.98 K	29.35
42.91 K	30.92
43.45 K	31.29
44.78 K	32.3
45.93 K	33.16
49.17 K	35.67
50 K	36.34
51.08 K	37.1
53.56 K	38.97
56.03 K	40.81
58.51 K	42.63
60 K	43.49
60.98 K	44.1
63.46 K	45.65
65.93 K	47.18
68.4 K	49.19
70 K	49.95
70.88 K	50.36
73.21 K	52.04
75.22 K	52.99
77.32 K	54.31
79.34 K	55.1
80 K	55.45
82.06 K	56.51
84.87 K	57.9
87.85 K	59.4
90 K	60.47
90.82 K	60.89
93.8 K	62.3
96.76 K	63.67
99.73 K	65.16
100 K	65.36
102.7 K	66.55
105.67 K	67.8
106.15 K	68.12
108.64 K	69.18
109.01 K	69.31
110 K	69.68
111.61 K	70.34
111.97 K	70.65
114.57 K	71.6
114.94 K	71.75
117.89 K	73.04
120 K	73.76
120.75 K	74.11
123.71 K	75.3
126.68 K	76.26
129.64 K	77.49
130 K	77.82
132.61 K	78.6
138.24 K	80.9
140 K	81.78
146.91 K	84.72
149.76 K	85.72
150 K	85.56
152.73 K	86.72
155.69 K	87.47
158.66 K	88.47
160 K	89.05
161.62 K	89.38
164.59 K	90.46
167.56 K	91.54
170 K	92.62
170.53 K	92.79
173.49 K	94.53
178.4 K	96.61
180 K	96.36
184.4 K	99.44
184.65 K	101.2
190 K	100.5
191.1 K	105.5
191.8 K	105
198.9 K	124.1
200 K	104.6
200.5 K	130.6
201.1 K	139.5
201.51 K	150.5
210 K	107.7
212.86 K	108.1

Liquid, Vacuum adiabatic calorimetry
Conditions	molar heat capacity at constant pressure
212.86 K	141.4 J/K/mol
213 K	142.4 J/K/mol
215.3 K	141.5 J/K/mol
216.03 K	141.8 J/K/mol
217.78 K	141.7 J/K/mol
217.98 K	142 J/K/mol
220 K	141.9 J/K/mol
220.95 K	141.8 J/K/mol
222.56 K	142 J/K/mol
223.91 K	142.2 J/K/mol
225.22 K	142.2 J/K/mol
226.86 K	142.2 J/K/mol
228.18 K	142.4 J/K/mol
229.81 K	142.5 J/K/mol
230 K	142.5 J/K/mol
230.54 K	142.5 J/K/mol
231.13 K	142.7 J/K/mol
232.77 K	142.5 J/K/mol
233.19 K	142.9 J/K/mol
235.55 K	142.5 J/K/mol
235.72 K	142.8 J/K/mol
236.14 K	142.7 J/K/mol
238.66 K	143 J/K/mol
238.73 K	143.2 J/K/mol
239.07 K	143 J/K/mol
240 K	143 J/K/mol
241.6 K	143.1 J/K/mol
242.25 K	143.5 J/K/mol
244.54 K	143.3 J/K/mol
245.77 K	143.3 J/K/mol
247.48 K	143.4 J/K/mol
249.28 K	143.4 J/K/mol
250 K	143.6 J/K/mol
250.41 K	143.5 J/K/mol
252.78 K	143.7 J/K/mol
253.34 K	143.5 J/K/mol
256.26 K	143.9 J/K/mol
256.28 K	144.1 J/K/mol
259.17 K	144 J/K/mol
260 K	144.2 J/K/mol
261.17 K	144.3 J/K/mol
262.1 K	144.3 J/K/mol
262.79 K	144.5 J/K/mol
263.79 K	144.4 J/K/mol
265.01 K	144.6 J/K/mol
266.68 K	144.8 J/K/mol
267.92 K	144.6 J/K/mol
269.56 K	145 J/K/mol
270 K	144.9 J/K/mol
270.82 K	144.8 J/K/mol
272.44 K	145.3 J/K/mol
273.71 K	145 J/K/mol
275.31 K	145.4 J/K/mol
276.6 K	145.4 J/K/mol
278.16 K	145.6 J/K/mol
279.47 K	145.6 J/K/mol
280 K	145.9 J/K/mol
281.01 K	146.1 J/K/mol
283.85 K	146.6 J/K/mol
286.68 K	146.7 J/K/mol
289.51 K	147 J/K/mol
290 K	147.1 J/K/mol
292.32 K	147.4 J/K/mol
298.15 K	148.2 J/K/mol and 148.2 J/K/mol
300 K	148.5 J/K/mol
301.5 K	148.7 J/K/mol
305 K	149 J/K/mol
